Patent publication US20260284009A1, “COMPOUNDS FOR NOS-RELATED CANCERS AND METHODS OF USE” (YISSUM RESEARCH DEVELOPMENT COMPANY OF THE HEBREW …, priority 2023, published 2026)

What was measured:
[1] = system: U87-MG cells; experiment: Xenograft glioblastoma model, U87-MG cells in NSG mice: tumor volume and mass; format: in vivo
Procedure: (§1) A xenograft glioblastoma model was generated by injecting 1.0×10^6 U87-MG cells (in PBS) into the subcutaneous tissue in the flank of NOD SCID Gamma (NSG) male (n=40) and female mice (n=5). Mice were 6-7 weeks old at time of injections. Mice were divided into groups and treatment was started when tumor volume reached 50 mm^3.
An initial experiment was performed with two treatment groups of mice, the treatment groups were: 0.1% DMSO (“Vehicle”) (n=10) and 80 mg/kg of 7-NI (n=10). Treatments were administered intraperitoneally daily for 8 days. Treatment started after five days from the injection with U87-MG cells. After one month, all mice were euthanized, and tumors were harvested for ex vivo analysis and histology. Tumor volume was measured using calipers and was calculated as (length*width^2)/2. The tumor volume of all mice were tabulated, as well the best 4-5 mice in terms of treatment efficacy (smallest tumor volume).
A dose response experiment was performed in the mice, the treatment groups were 0.1% DMSO (“Vehicle”) (n=8), 20 mg/kg 7-NI (n=8), 40 mg/kg 7-NI (n=8), and 80 mg/kg 7-NI (n=8). Treatments were administered intraperitoneally daily, for 14 days. Treatment started after five days from the injection with U87-MG cells. All mice were euthanized, and tumors were harvested for ex vivo analysis and histology. Tumor volume was measured using calipers and was calculated as (length*width^2)/2. The tumor volume of all mice were tabulated, as well the tumor mass.

[2] = system: SH-SY5Y cells; experiment: NADPH-diaphorase activity assay (NOS activity) in SH-SY5Y cell lysates; format: cell-based, human; details: 100 μM 7-NI, 24 hr
Procedure: Human neuroblastoma (“NB”) SH-SY5Y cells were obtained from the American Type Culture Collection (ATCC) and maintained in Dulbecco's modified Eagle's medium (DMEM) and Ham's F-12 (1:1) supplemented with 10% fetal bovine serum, 2 mM L-glutamine, and 100 U/ml penicillin-G/[…] streptomycin in the humidified atmosphere (37° C., 5% CO2). Cells were plated onto 25 cm^2 and 75 cm^2 at a density of […] respectively for Western blotting (WB) and 1×10^5 for immunofluorescence. The SH-SY5Y cells were treated with 100 μM 7-nitroindazole (7-NI) for 24 hr. This concentration was confirmed in the dose-response experiment (FIG. 1) using an MTT viability assay.
The NADPH-diaphorase activity assay was used to determine the NOS activity based on the NADPH-dependent reduction of nitro-blue tetrazolium salt (NBT) to visible formazan. SH-SYSY cells grown in six-well culture plates were lysed in 50 mM Tris-HCl buffer (pH 7.4), containing 0.1% Triton X-100, 2 mM EDTA, and a protease inhibitor cocktail (Sigma, St. Louis, MO). […] After a 15 min incubation period at 37° C., the production of formazan was measured spectrophotometrically at 585 nm. The data were expressed as absorbance units and normalized for the protein content of each sample. Protein concentration was measured by the bicinchoninic acid (BCA) protein assay using BSA as a standard. […]

[3] = system: SH-SY5Y cells; experiment: Clonogenic survival of SH-SY5Y cells; format: cell-based, human; details: 100 μM 7-NI or 20 nM siRNA (SEQ ID NO: 4), n=4
Procedure: In FIGS. 3A-3B, for quantitative analysis data, all individual data series are presented as biological replicates (n=4) for all groups. Data are presented as mean±SEM. Statistical significance was determined using a One-way ANOVA followed by Fisher's LSD multiple comparison post hoc test. *P<0.05, **P<0.01, and ns=not significant.
FIG. 3A: Representative well images of clonogenic growth following administration of the control (“SH-SY5Y”), 0.1% DMSO (“SH-SY5Y+NC”), 100 μM 7-NI (“SH-SY5Y+7-NI”), or 20 nM siRNA (SEQ ID NO: 4) (“SH-SY5Y+si-nNOS”).
FIG. 3B: Quantitative analysis of clonogenic survival for the experiments of FIG. 3A.

[4] = system: U87-MG cells; experiment: Xenograft glioblastoma model, U87-MG cells in NSG mice: survival experiment; format: in vivo; details: 80 mg/kg or 120 mg/kg 7-NI intraperitoneally daily, vehicle-treated mice 35 days
Procedure: as §1
A survival experiment was performed in the mice, the treatment groups were saline (“Vehicle”) (n=10), 80 mg/kg 7-NI (n=10), and 120 mg/kg 7-NI (n=8). Treatments were administered intraperitoneally daily.

[5] = system: U87-MG cells; experiment: Clonogenic survival (colony) assay in U87-MG cells; format: cell-based, human
Procedure: Human glioblastoma U87-MG cells were obtained from the American Type Culture Collection (ATCC) and maintained in Dulbecco's modified Eagle's Medium (DMEM) and Ham's F-12 (1:1) supplemented with 10% fetal bovine serum, 2 mM L-glutamine, and 100 U/ml penicillin-G/[…] streptomycin in the humidified atmosphere (37° C., 5% CO2). Cells were plated onto 25 cm^2 and 75 cm^2 at a density of 7.0×10^5 and 2.1×10^6 cells/cm^2 respectively for Western blotting (WB) and 1×10^5 for immunofluorescence. The U87-MG cells were treated with 100 μM 7-nitroindazole (7-NI) for 24 hr.
Cells were seeded into 6-well plates at concentrations of 500/well or 1000/well in triplicates. After 24 hours, 7-NI was added, or cells were transiently transfected with siRNA-nNOS, as described above, before changing to serum-containing medium. […] Colonies were stained with crystal violet, washed with PBS, air-dried, and imaged. The colonies were visualized using ImageJ software. Cell colonies of greater than 50 cells were identified and counted.
(§2) In a particular example, in vitro and in vivo experiments were performed using U87-MG cells and U87-MG-xenografted mice, respectively, as a glioblastoma model.

[6] = system: U87-MG-xenografted mice; experiment: Tumor growth in U87-MG-xenografted mice; format: in vivo; details: 10 mg/kg, compared to the vehicle (FIGS. 16-17)
Procedure: as §2

[7] = highest dosage of 7-NI (80 mg/kg) in dose response experiment, daily for 14 days, vs lower dosages
[8] = reduced dosages, as low as 20 mg/kg 7-NI intraperitoneally daily for 14 days, vs vehicle

Compound	average tumor size ([1]; NSG mice, 80 mg/kg 7-NI intraperitoneally daily for 8 days, vs vehicle)	average tumor size [1, 7]	tumor mass [1, 7]	average tumor size [1, 8]	tumor mass [1, 8]	NADPH diaphorase activity (NOS activity) [2]	clonogenic survival [3]	median survival [4]	colony growth ([5]; 7-NI, vs control and negative control (0.1% DMSO))	average tumor size [6]	colony growth ([5]; higher dose of L-NIL, both experiments, vs control)	colony growth ([5]; lower dose of L-NIL, one experiment (FIG. 9), vs control)	colony growth ([5]; lower dose of L-NIL, second experiment (FIGS. 8C-8D), reduced vs control)
O=[N+]([O-])c1cccc2cn[nH]c12 [7-NI, 7-nitroindazole]	significantly smaller	larger reduction	larger reduction	significantly smaller	smaller	significantly inhibited	significant decrease	~ 65 days	significantly impacted				
CC(=N)NCCCC[C@H](N)C(=O)O [L-NIL, N^6-(1-iminoethyl)-L-lysine]										significantly smaller	significant decrease	significantly reduced	not statistically significant
